# Results taken from patent US10806794B2, “Protease inhibitors having enhanced features” (priority 2008, dated 2020).
# Several values for one entry are separate records, joined by “and”; a condition that tells them apart may be missing. Equal values may be shown once.
# Assays:
# [1] = Metabolic stability in human liver microsomes; details: human liver microsomes, 3 μM
# Experimental: The human liver microsome-mediated biotransformation of PEG-PI compounds was determined by monitoring the loss of the substrate as a function of time. […] Test compounds (3 μM final concentration) were preincubated with pooled (male and female) human liver microsomes (0.5 mg/mL final protein concentration) in buffer (0.1M phosphate buffer, pH 7.4) at 37° C. Reactions were initiated by the addition of NADPH (1 mM final concentration), and allowed to continue for 0, 5, 15, 30, and 45 minutes. […] Sample supernatants are analyzed by liquid chromatography-tandem mass spectrometry.
# [2] = tested on: human plasma proteins; assay: Plasma protein binding by equilibrium dialysis, human plasma; assay type: in vitro ADME; details: human plasma, 5 μM, fraction unbound
# Experimental: In assays to estimate binding of test compounds to plasma proteins, test compound solutions (5 μM) are prepared in buffer and species-specific plasma (final DMSO concentration 0.5%). The plasma-containing solution is added to one side of the membrane of an equilibrium dialysis system, and the plasma-free is added to the other side. Dialysis was allowed to reach equilibrium by incubation for two hours at 37° C. The concentration of compound on both sides of the membrane was measured using LC-MS/MS.
# [3] = tested on: human liver microsomal proteins; assay: Microsomal protein binding by equilibrium dialysis; assay type: in vitro ADME; details: human liver microsomes, 3 μM, fraction unbound
# Experimental: PEGylated protease inhibitors were evaluated for their propensity to be bound by proteins in normal human plasma or in human liver microsome preparations using equilibrium dialysis analysis. For microsomal protein binding, test compound (final concentration=3 μM) was diluted into either buffer alone or buffer containing human liver microsomes. The protein-free and microsome-containing solutions were then added to either side of an equilibrium dialysis system and allowed to reach equilibrium at 37° C. The concentration of compound on both sides of the membrane at equilibrium was quantified by LC-MS/MS, and the fraction of compound that remains unbound (Fu) is calculated.
# [4] = tested on: HIV-1RF; assay: Anti-HIV cytoprotection in CEM-SS cells infected with HIV-1RF (XTT); assay type: cell-based; details: six days, XTT; read-out: CEM-SS/HIV-1RF EC50 ± SD
# Experimental: To evaluate whether conjugated protease inhibitors retain the ability to protect against HIV-1 infection, CEM-SS cells infected with the RF strain of HIV-1 were treated with test compounds for six days, and then cell viability was monitored using the tetrazolium dye XTT. […] A value for Therapeutic Index (TI) was calculated as TC50/EC50.
# [5] = tested on: PBMCs; assay: Toxicity in PBMCs cultured without virus (XTT); details: seven days, absence of virus, XTT
# Experimental: (§1) Fresh human peripheral blood mononuclear cells (PBMCs) obtained from a commercial source were purified following centrifugation using a Ficoll-Hypaque density gradient. Viable cells were induced to proliferate in the presence of PHA-P and recombinant human IL-2 for 72 hours. […] Cell supernatant containing HIV-1 viral was incubated for 90 minutes at 37° C. with a reaction mixture containing EGTA, Triton X-100, Tris (pH 7.4), DTT, MgCl2, poly rA, oligo dT, and tritiated thymidine triphosphate (TTP). Incorporation of TTP into DNA was monitored by spotting the reaction mixture onto a DEAE filter mat, followed by washes with 5% phosphate buffer, distilled water, and 70% ethanol, and subsequent drying of the mat. […] TI was calculated as TC50/EC50.
# [6] = tested on: HIV-1 HT/92/599; assay: HIV-1 reverse transcriptase activity after infection of fresh human PBMCs; assay type: cell-based; details: read-out: PBMC/HIV-1HT/92/599 EC50 ± SD; seven days, reverse transcriptase activity
# Experimental: as §1, with “mat. Radioactivity was measured using a Wallac 1450 Microbeta Trilux liquid scintillation counter using Opti-Fluor O. Test compound-associated toxicity was measured in PBMCs cultured for seven days in the absence of virus using XTT reagent.” for “mat.”
# [7] = tested on: Caco-2 cells; assay: Bi-directional permeability in Caco-2 monolayers; details: Caco-2 monolayers
# Experimental: Absorption properties of various compounds were measured using bi-directional permeability assays in Caco-2 cells. […] The efflux ratio is calculated as the ratio of the Papp(B→A)/Papp(A→B).
# [8] = tested on: HIV-1 virions; assay: Infectivity of HIV-1 virions from treated cells on naive CEM-SS cells; assay type: cell-based
# Experimental: In concert with p24 analysis, cell supernatants collected from cells exposed to test compounds at 8, 16, or 24 hours post-infection were used to infect naïve CEM-SS cells. Cell viability was measured six days post-infection as a measure of virus infectivity (Table 5).
# [9] = tested on: HIV-1RF; assay: p24 levels after single high MOI HIV-1RF infection of CEM-SS cells, time of addition; assay type: cell-based
# Experimental: The cytoprotective effect against HIV of the PEG-protease inhibitor conjugates was evaluated during a single round of high multiplicity of infection (“MOI”) HIV-1 infection in CEM-SS cells. CEM-SS cells were incubated for one hour with a single high MOI dose of HIV-1RF. Cells were washed to remove free virus, then test compounds were added to cells at 0, 2, 4, 6, 8, 16, or 24 hours after HIV-1 infection. To monitor viral replication, cell supernatants were analyzed at 30 hours post-infection for levels of the HIV capsid protein p24 (FIG. 1). […] Nevirapine inhibited viral replication at 1 μM when added to cells up to four hours post-infection, and at 10 μM when added up to eight hours post-infection.
# [10] = tested on: HIV-1RF; assay: Pre-exposure assay: CEM-SS cells treated before HIV-1RF infection, cell viability; assay type: cell-based; details: for EC50: Human immunodeficiency virus 1, CEM-SS, read-out: EC50
# Experimental: (§2) The effects of pre- and post-infection PI treatment on CEM-SS toxicity were assessed. […] Cell toxicity was monitored six days after infection using XTT reagent. In the post-exposure assay, test compounds were added to cells 0, 24, 48, or 72 h after HIV-1 infection, and cell viability was measured six days post-infection.
# [11] = tested on: HIV-1RF; assay: Post-exposure assay: compounds added after HIV-1 infection of CEM-SS cells, cell viability; assay type: cell-based; details: Human immunodeficiency virus 1, CEM-SS, read-out: EC50
# Experimental: as §2
# [12] = tested on: CEM-SS cells; assay: Post-exposure assay: toxicity in CEM-SS cells; details: human
# Experimental: as §2
# [13] = drug addition 0 h post-infection
# [14] = drug addition 24 h post-infection
# [15] = drug addition 48 h post-infection
# [16] = drug addition 72 h post-infection
compound,measurement,setting,value
COCCOCCOCCOCCOCCOCCOCCOc1ccc(C[C@H](NC(=O)O[C@H]2CO[C@H]3OCC[C@H]32)C(O)CN(CC(C)C)S(=O)(=O)c2ccc(N)cc2)cc1 (some centres unmarked) [mPEG7-O-Darunavir],CLint ± SEM,[1],113 ± 8.87 μL/min/mg protein
same,t1/2,[1],12.2 min
same,Plasma Protein Binding Fu ± SD,[2],0.314 ± 0.0116
same,Microsomal Protein Binding Fu ± SD,[3],0.84 ± 0.0131
same,EC50,[4],47 nM and 76 nM
same,PBMC TC50 ± SD,[5],>200000 nM
same,EC50,[6],250 ± 27 nM
same,Efflux ratio (B→A/A→B),[7],33
same,"A→B, ×10^−6",[7]; apical to basolateral,0.19 cm/s
CC(C)c1nc(CN(C)C(=O)N[C@H](C(=O)N[C@@H](Cc2ccccc2)C[C@H](O)[C@H](Cc2ccccc2)NC(=O)OCc2cncs2)C(C)C)cs1 [Ritonavir],Percent Infectivity of HIV-1 Virions in comparison to virus-alone control,"[8]; 0.01 μM, added 8 h post-infection",42.9%
same,Percent Infectivity of HIV-1 Virions in comparison to virus-alone control,"[8]; 0.01 μM, added 16 h post-infection",331.2%
same,Percent Infectivity of HIV-1 Virions in comparison to virus-alone control,"[8]; 0.01 μM, added 24 h post-infection",100.0%
same,Percent Infectivity of HIV-1 Virions in comparison to virus-alone control,"[8]; 0.1 μM, added 8 h post-infection",1.0%
same,Percent Infectivity of HIV-1 Virions in comparison to virus-alone control,"[8]; 0.1 μM, added 16 h post-infection",3.7%
same,Percent Infectivity of HIV-1 Virions in comparison to virus-alone control,"[8]; 0.1 μM, added 24 h post-infection",26.6%
same,Percent Infectivity of HIV-1 Virions in comparison to virus-alone control,"[8]; 1 μM, added 8 h post-infection",0.1%
same,Percent Infectivity of HIV-1 Virions in comparison to virus-alone control,"[8]; 1 μM, added 16 h post-infection",0.1%
same,Percent Infectivity of HIV-1 Virions in comparison to virus-alone control,"[8]; 1 μM, added 24 h post-infection",0.1%
same,time of addition up to which antiviral activity (reduced p24) was seen,[9]; 0.1 μM,up to six
same,time of addition up to which antiviral activity (reduced p24) was seen,[9]; 1 μM,up to 24 hours post-infection
same,EC50,[10]; exposure 2 h pre-infection,720 nM
same,EC50,[10]; exposure 8 h pre-infection,750 nM
same,EC50,[10]; exposure 24 h pre-infection,680 nM
same,EC50 values after pre-treatment of cells,[10]; in words,sub-micromolar
same,EC50,[11]; [13],40 nM
same,EC50,[11]; [14],30 nM
same,EC50,[11]; [15],70 nM
same,EC50,[11]; [16],260 nM
COc1cc(-c2ccc(/N=N/c3ccc4c(S(=O)(=O)O)cc(S(=O)(=O)O)c(N)c4c3O)c(OC)c2)ccc1/N=N/c1ccc2c(S(=O)(=O)O)cc(S(=O)(=O)O)c(N)c2c1O [Chicago Sky Blue],Percent Infectivity of HIV-1 Virions in comparison to virus-alone control,"[8]; 0.5 μg/mL, added 8 h post-infection",100.0%
same,Percent Infectivity of HIV-1 Virions in comparison to virus-alone control,"[8]; 0.5 μg/mL, added 16 h post-infection",177.8%
same,Percent Infectivity of HIV-1 Virions in comparison to virus-alone control,"[8]; 0.5 μg/mL, added 24 h post-infection",266.4%
same,Percent Infectivity of HIV-1 Virions in comparison to virus-alone control,"[8]; 5 μg/mL, added 8 h post-infection",100.0%
same,Percent Infectivity of HIV-1 Virions in comparison to virus-alone control,"[8]; 5 μg/mL, added 16 h post-infection",331.2%
same,Percent Infectivity of HIV-1 Virions in comparison to virus-alone control,"[8]; 5 μg/mL, added 24 h post-infection",100.0%
same,Percent Infectivity of HIV-1 Virions in comparison to virus-alone control,"[8]; 50 μg/mL, added 8 h post-infection",100.0%
same,Percent Infectivity of HIV-1 Virions in comparison to virus-alone control,"[8]; 50 μg/mL, added 16 h post-infection",562.3%
same,Percent Infectivity of HIV-1 Virions in comparison to virus-alone control,"[8]; 50 μg/mL, added 24 h post-infection",100.0%
same,effect on p24 levels,"[9]; added at any time after infection, even at 50 μg/mL",did not affect p24 levels
same,EC50,[10]; exposure 2 h pre-infection,> 10 µg/mL
same,EC50,[10]; exposure 8 h pre-infection,> 10 µg/mL
same,EC50,[10]; exposure 24 h pre-infection,> 10 µg/mL
same,antiviral activity after pre-treatment of cells,[10]; concentrations up to 10 μg/mL,did not demonstrate antiviral activity
same,TC50,[12]; 3 days,5.6 µg/mL
same,TC50,[12]; 4 days,5.5 µg/mL
same,TC50,[12]; 5 days,4.9 µg/mL
same,TC50,[12]; 6 days,8.2 µg/mL
same,EC50,[11]; [13],1.84 µg/mL
same,EC50,[11]; [14],> 10 µg/mL
same,EC50,[11]; [15],> 10 µg/mL
same,EC50,[11]; [16],> 10 µg/mL
